Patent publication US9073830B2 (Hyundai Pharm Co., Ltd., priority 2011, dated 2015)

Tests used:
human 11β-HSD1 = target: T1, human 11β-HSD1 (Homo sapiens, UniProt P28845); test: Enzyme activity analysis on human 11β-HSD1 (HTRF cortisol, liver microsomes); type: biochemical; conditions: first value of cell
T1 construct: 100 ug/ml human/mouse liver microsomes; from tissue; host or cells: human liver microsomes
Procedure, shortened: (§1)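 Cortisol generated by mouse or human liver microsome 11β-HSD1 during 2 h at 37° C., measured by HTRF competition (cryptate anti-cortisol antibody, d2-cortisol, 2 h room temperature) against a cortisol standard curve. IC50 from percent inhibition versus no-compound control.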

mouse 11β-HSD1 = target: T2, mouse 11β-HSD1 (Mus musculus, UniProt P50172); test: Enzyme activity analysis on mouse 11β-HSD1 (HTRF cortisol, liver microsomes); type: biochemical; conditions: second value of cell
T2 construct: 100 ug/ml human/mouse liver microsomes; from tissue; host or cells: mouse liver microsomes
T2 sequence (P50172 whole entry): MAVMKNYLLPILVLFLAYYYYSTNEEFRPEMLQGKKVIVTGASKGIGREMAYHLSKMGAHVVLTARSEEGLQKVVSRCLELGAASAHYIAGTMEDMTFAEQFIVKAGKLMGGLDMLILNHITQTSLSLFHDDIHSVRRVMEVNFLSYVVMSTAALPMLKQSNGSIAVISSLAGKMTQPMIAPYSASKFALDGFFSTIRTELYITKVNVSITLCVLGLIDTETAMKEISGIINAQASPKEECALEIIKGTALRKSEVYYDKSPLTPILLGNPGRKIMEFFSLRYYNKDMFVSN
Procedure, shortened: as §1

T1 sequence (P28845 whole entry): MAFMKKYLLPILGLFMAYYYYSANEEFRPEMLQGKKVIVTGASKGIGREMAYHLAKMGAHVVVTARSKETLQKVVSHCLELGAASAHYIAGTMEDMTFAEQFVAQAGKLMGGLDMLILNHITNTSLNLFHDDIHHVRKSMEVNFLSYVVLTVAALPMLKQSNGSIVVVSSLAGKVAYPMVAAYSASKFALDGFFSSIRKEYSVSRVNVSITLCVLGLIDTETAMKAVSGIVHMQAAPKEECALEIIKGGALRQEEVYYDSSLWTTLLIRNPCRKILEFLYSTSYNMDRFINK

SMILES | IC50 (human 11β-HSD1) | IC50 (mouse 11β-HSD1)
NC(=O)C12CC3CC(C1)C(NC(=O)C1(NS(=O)(=O)c4ccccc4OC(F)(F)F)CCC1)C(C3)C2 (stereo not shown) [compound 160, N-4-(1-(2-trifluoromethoxyphenylsulfonamido)cyclobutanecarboxyamido)adamantane-1-carboxyamide] | 0.018 µM | 0.113 µM
NC(=O)C12CC3CC(C1)C(NC(=O)C1(NS(=O)(=O)c4cc(Cl)c(Cl)cc4Cl)CCC1)C(C3)C2 (stereo not shown) [compound 161, N-4-(1-(2,4,5-trichlorophenylsulfonamido)cyclobutanecarboxyamido)adamantane-1-carboxyamide] | 0.052 µM | 0.428 µM
NC(=O)C12CC3CC(C1)C(NC(=O)C1(NS(=O)(=O)c4ccc(Br)cc4Cl)CCC1)C(C3)C2 (stereo not shown) [compound 162, N-4-(1-(2-chloro-4-bromophenylsulfonamido)cyclobutanecarboxyamido)adamantane-1-carboxyamide] | 0.04 µM | 0.453 µM
NC(=O)C12CC3CC(C1)C(NC(=O)C1(NS(=O)(=O)c4cc(F)ccc4F)CCC1)C(C3)C2 (stereo not shown) [compound 163, N-4-(1-(2,5-difluorophenylsulfonamido)cyclobutanecarboxyamido)adamantane-1-carboxyamide] | 0.373 µM | 0.443 µM
Cc1ccc(F)c(S(=O)(=O)NC2(C(=O)NC3C4CC5CC3CC(C(N)=O)(C5)C4)CCC2)c1 (stereo not shown) [compound 164, N-4-(1-(2-fluoro-5-methylphenylsulfonamido)cyclobutanecarboxyamido)adamantane-1-carboxyamide] | 0.058 µM | 0.298 µM
Cc1ccc(F)cc1S(=O)(=O)NC1(C(=O)NC2C3CC4CC2CC(C(N)=O)(C4)C3)CCC1 (stereo not shown) [compound 165, N-4-(1-(2-methyl-5-fluorophenylsulfonamido)cyclobutanecarboxyamido)adamantane-1-carboxyamide] | 0.101 µM | 0.29 µM
NC(=O)C12CC3CC(C1)C(NC(=O)C1(NS(=O)(=O)c4ccc(OC(F)F)cc4)CCC1)C(C3)C2 (stereo not shown) [compound 166, N-4-(1-(4-(difluoromethoxy)phenylsulfonamido)cyclobutanecarboxyamido)adamantane-1-carboxyamide] | 0.724 µM | 0.559 µM
Cc1c(Cl)cccc1S(=O)(=O)NC1(C(=O)NC2C3CC4CC2CC(C(N)=O)(C4)C3)CCCC1 (stereo not shown) [compound 167, N-4-(1-(3-chloro-2-methylphenylsulfonamido)cyclopentanecarboxyamido)adamantane-1-carboxyamide] | 0.008 µM | 0.016 µM
NC(=O)C12CC3CC(C1)C(NC(=O)C1(NS(=O)(=O)c4cccc5cccnc45)CCCC1)C(C3)C2 (stereo not shown) [compound 168, N-4-(1-(quinoline-8-sulfonamido)cyclopentanecarboxyamido)adamantane-1-carboxyamide] | 0.022 µM | 0.007 µM
Cc1ccccc1S(=O)(=O)NC1(C(=O)NC2C3CC4CC2CC(C(N)=O)(C4)C3)CCCC1 (stereo not shown) [compound 169, N-4-(1-(2-methylphenylsulfonamido)cyclopentanecarboxyamido)adamantane-1-carboxyamide] | 0.03 µM | 0.049 µM
NC(=O)C12CC3CC(C1)C(NC(=O)C1(NS(=O)(=O)c4ccccc4Cl)CCCC1)C(C3)C2 (stereo not shown) [compound 170, N-4-(1-(2-chlorophenylsulfonamido)cyclopentanecarboxyamido)adamantane-1-carboxyamide] | 0.011 µM | 0.012 µM
NC(=O)C12CC3CC(C1)C(NC(=O)C1(NS(=O)(=O)c4ccccc4)CCCC1)C(C3)C2 (stereo not shown) [compound 171, N-4-(1-(phenylsulfonamido)cyclopentanecarboxyamido)adamantane-1-carboxyamide] | 0.038 µM | 0.12 µM
NC(=O)C12CC3CC(C1)C(NC(=O)C1(NS(=O)(=O)c4ccccc4C(F)(F)F)CCCC1)C(C3)C2 (stereo not shown) [compound 172, N-4-(1-(2-trifluoromethylphenylsulfonamido)cyclopentanecarboxyamido)adamantane-1-carboxyamide] | 0.016 µM | 0.053 µM
NC(=O)C12CC3CC(C1)C(NC(=O)C1(NS(=O)(=O)c4ccccc4[N+](=O)[O-])CCCC1)C(C3)C2 (stereo not shown) [compound 173, N-4-(1-(2-nitrophenylsulfonamido)cyclopentanecarboxyamido)adamantane-1-carboxyamide] | 0.014 µM | 0.038 µM
NC(=O)C12CC3CC(C1)C(NC(=O)C1(NS(=O)(=O)c4ccccc4Br)CCCC1)C(C3)C2 (stereo not shown) [compound 174, N-4-(1-(2-bromophenylsulfonamido)cyclopentanecarboxyamido)adamantane-1-carboxyamide] | 0.017 µM | 0.015 µM
NC(=O)C12CC3CC(C1)C(NC(=O)C1(NS(=O)(=O)c4c(Cl)cccc4Cl)CCCC1)C(C3)C2 (stereo not shown) [compound 175, N-4-(1-(2,6-dichlorophenylsulfonamido)cyclopentanecarboxyamido)adamantane-1-carboxyamide] | 0.006 µM | 0.003 µM

SMILES | IC50 (human 11β-HSD1) | IC50 (mouse 11β-HSD1)
NC(=O)C12CC3CC(C1)C(NC(=O)C1(NS(=O)(=O)c4cccc(Cl)c4Cl)CCCC1)C(C3)C2 (stereo not shown) [compound 176, N-4-(1-(2,3-dichlorophenylsulfonamido)cyclopentanecarboxyamido)adamantane-1-carboxyamide] | 0.009 µM | 0.007 µM
NC(=O)C12CC3CC(C1)C(NC(=O)C1(NS(=O)(=O)c4cccc(Cl)c4F)CCCC1)C(C3)C2 (stereo not shown) [compound 177, N-4-(1-(2-fluoro-3-chlorophenylsulfonamido)cyclopentanecarboxyamido)adamantane-1-carboxyamide] | 0.009 µM | 0.006 µM
NC(=O)C12CC3CC(C1)C(NC(=O)C1(NS(=O)(=O)c4ccccc4Br)CCCCC1)C(C3)C2 (stereo not shown) [compound 178, N-4-(1-(2-bromophenylsulfonamido)cyclohexanecarboxyamido)adamantane-1-carboxyamide] | 0.009 µM | 0.048 µM
NC(=O)C12CC3CC(C1)C(NC(=O)C1(NS(=O)(=O)c4ccccc4Cl)CCCCC1)C(C3)C2 (stereo not shown) [compound 179, N-4-(1-(2-chlorophenylsulfonamido)cyclohexanecarboxyamido)adamantane-1-carboxyamide] | 0.008 µM | 0.037 µM
Cc1c(Cl)cccc1S(=O)(=O)NC1(C(=O)NC2C3CC4CC2CC(C(N)=O)(C4)C3)CCCCC1 (stereo not shown) [compound 180, N-4-(1-(3-chloro-2-methylphenylsulfonamido)cyclohexanecarboxyamido)adamantane-1-carboxyamide] | 0.023 µM | 0.328 µM
NC(=O)C12CC3CC(C1)C(NC(=O)C1(NS(=O)(=O)c4ccccc4C(F)(F)F)CCCCC1)C(C3)C2 (stereo not shown) [compound 181, N-4-(1-(2-trifluoromethylphenylsulfonamido)cyclohexanecarboxyamido)adamantane-1-carboxyamide] | 0.019 µM | 0.132 µM
NC(=O)C12CC3CC(C1)C(NC(=O)C1(NS(=O)(=O)c4cccc5cccnc45)CCCCC1)C(C3)C2 (stereo not shown) [compound 182, N-4-(1-(quinoline-8-sulfonamido)cyclohexanecarboxyamido)adamantane-1-carboxyamide] | 0.018 µM | 0.006 µM
NC(=O)C12CC3CC(C1)C(NC(=O)C1(NS(=O)(=O)c4cccc(Cl)c4Cl)CCCCC1)C(C3)C2 (stereo not shown) [compound 183, N-4-(1-(2,3-dichlorophenylsulfonamido)cyclohexanecarboxyamido)adamantane-1-carboxyamide] | 0.017 µM | 0.044 µM
NC(=O)C12CC3CC(C1)C(NC(=O)C1(NS(=O)(=O)c4ccccc4[N+](=O)[O-])CCCCC1)C(C3)C2 (stereo not shown) [compound 184, N-4-(1-(2-nitrophenylsulfonamido)cyclohexanecarboxyamido)adamantane-1-carboxyamide] | 0.005 µM | 0.104 µM
NC(=O)C12CC3CC(C1)C(NC(=O)C1(NS(=O)(=O)c4ccccc4F)CCCCC1)C(C3)C2 (stereo not shown) [compound 185, N-4-(1-(2-fluorophenylsulfonamido)cyclohexanecarboxyamido)adamantane-1-carboxyamide] | 0.028 µM | 0.119 µM
NC(=O)C12CC3CC(C1)C(NC(=O)C1(NS(=O)(=O)c4c(Cl)cccc4Cl)CCCCC1)C(C3)C2 (stereo not shown) [compound 186, N-4-(1-(2,6-dichlorophenylsulfonamido)cyclohexanecarboxyamido)adamantane-1-carboxyamide] | 0.012 µM | 0.005 µM
Cc1ccc(S(=O)(=O)NC2(C(=O)NC3C4CC5CC3CC(C(N)=O)(C5)C4)CCCCC2)cc1F (stereo not shown) [compound 187, N-4-(1-(3-fluoro-4-methylphenylsulfonamido)cyclohexanecarboxyamido)adamantane-1-carboxyamide] | 0.076 µM | > 2.5 µM
CN(C(C)(C)C(=O)NC1C2CC3CC1CC(C(N)=O)(C3)C2)S(=O)(=O)c1cccc2cccnc12 (stereo not shown) [compound 188, N-4-(2-methyl-2-(N-methylquinoline-8-sulfonamido)propanamido)adamantane-1-carboxyamide] | 0.013 µM | 0.007 µM
CN(C(C)(C)C(=O)NC1C2CC3CC1CC(C(N)=O)(C3)C2)S(=O)(=O)c1ccccc1Br (stereo not shown) [compound 189, N-4-(2-(2-bromo-N-methylphenylsulfonamido)-2-methylpropanamido)adamantane-1-carboxyamide] | 0.018 µM | > 2.5 µM
CN(C(C)(C)C(=O)NC1C2CC3CC1CC(C(N)=O)(C3)C2)S(=O)(=O)c1ccccc1Cl (stereo not shown) [compound 190, N-4-(2-(2-chloro-N-methylphenylsulfonamido)-2-methylpropanamido)adamantane-1-carboxyamide] | 0.002 µM | 0.005 µM
Cc1c(Cl)cccc1S(=O)(=O)N(C)C(C)(C)C(=O)NC1C2CC3CC1CC(C(N)=O)(C3)C2 (stereo not shown) [compound 191, N-4-(2-(2-methyl-3-chloro-N-methylphenylsulfonamido)-2-methylpropanamido)adamantane-1-carboxyamide] | 0.009 µM | 0.006 µM
